The target in the experiment is Protein phosphatase methylesterase 1 (Homo sapiens) (UniProt Q9Y570). As to the kind of experiment: cellular PME-1 activity blockade – cell-based, fluorescence, late-stage follow-up (AID 463131). The settings on record: human cells, fluorescent probe labeling of PME-1; at 0.5 µM; stronger effect = higher value.

A word on the inhibition: it is the percentage by which the read-out fell short of the control.

Chain of Protein phosphatase methylesterase 1 (Homo sapiens) (Q9Y570 whole entry, looked up): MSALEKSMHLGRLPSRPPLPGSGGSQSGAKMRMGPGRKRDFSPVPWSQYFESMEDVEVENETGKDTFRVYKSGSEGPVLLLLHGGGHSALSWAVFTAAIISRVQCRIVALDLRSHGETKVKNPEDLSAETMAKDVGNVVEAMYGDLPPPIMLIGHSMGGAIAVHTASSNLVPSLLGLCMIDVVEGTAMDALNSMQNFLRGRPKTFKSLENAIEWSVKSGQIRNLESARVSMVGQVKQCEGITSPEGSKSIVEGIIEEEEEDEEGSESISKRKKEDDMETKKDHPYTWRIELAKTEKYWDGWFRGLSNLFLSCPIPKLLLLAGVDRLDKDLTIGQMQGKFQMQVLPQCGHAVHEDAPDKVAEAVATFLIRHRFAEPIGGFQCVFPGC

For `COC(=O)N1C(=O)[C@](c2ccccc2)(C2CCCCC2)N1C(=O)OC`, the inhibition was 100%.

In the case of `COC(=O)N1C(=O)[C@](c2ccccc2)(C2CCCC2)N1C(=O)OC`, the inhibition is 100%.

The values above are taken from PubChem BioAssay AID463131 (The Scripps Research Institute Molecular Screening Center, 2010).
